In patent publication US4552879A, “Benzoheterocyclic compounds and pharmaceutical composition thereof” (Otsuka Pharmaceutical Co., Ltd., priority 1980, dated 1985):
≈ marks a conversion by molar mass, not a printed value. Read-outs that look alike come from different tables or passages of the source.

How the values were obtained:
Type in all cases: cell-based
[1] = system: Escherichia Coli NIHJ JC-2 (IFO 12734); test: Minimum inhibitory concentration, serial dilution method on agar plate; details: read-out: Minimum Inhibitory Concentration
Klebsiella pneumoniae = test: as above; details: read-out: Minimum Inhibitory Concentration
Proteus rettgeri NIH 96 = test: as above; details: Providencia rettgeri
[2] = system: Pseudomonas aeruginosa E-2; test: as above; details: Pseudomonas aeruginosa, read-out: Minimum Inhibitory Concentration
Pseudomonas putida 12996 = test: as above; details: read-out: Minimum Inhibitory Concentration
[3] = system: Pseudomonas aeruginosa ATCC 10145; test: as above; details: Pseudomonas aeruginosa, read-out: Minimum Inhibitory Concentration
[4] = system: Salmonella typhi 0-901 (NCTC 8393); test: as above; details: Salmonella enterica
[5] = system: Serratia marcescens IFO 12648; test: as above; details: read-out: Minimum Inhibitory Concentration
[6] = system: Staphylococcus aureus FDA 209 P; test: as above; details: Staphylococcus aureus, read-out: Minimum Inhibitory Concentration
[7] = system: Bacillus subtilis PCI 219; test: as above
Bacillus anthracis = test: microbe, parasite or virus in culture
[8] = system: Bacillus cereus ATCC 11778; test: Minimum inhibitory concentration, serial dilution method on agar plate
Bacillus cereus IFO 3001 = test: as above
Bacillus cereus IFO 3446 = test: as above
[9] = system: Bacillus pumilus IFO 3813; test: as above
[10] = system: Bacillus circuluns ATCC 8241; test: as above
[11] = system: Staphylococcus aureus Newmann; test: as above
[12] = system: Staphyloccus aureus Smith; test: as above
[13] = system: Staphylococcus aureus IFO 3761; test: as above
[14] = system: Staphylococcus aureus No. 80; test: as above
[15] = system: Staphylococcus aureus B-70; test: as above
[16] = system: Staphylococcus aureus B-5; test: as above
[17] = system: Staphylococcus aureus 7447; test: as above
[18] = system: Staphylococcus aureus 90124; test: as above
[19] = system: Staphylococcus aureus 50774; test: as above
[20] = system: Staphylococcus epidermidis ATCC 12228; test: as above
[21] = system: Staphylococcus epidermidis IFO 3762; test: as above
[22] = system: Micrococcus luteus ATCC 4698; test: as above
[23] = system: Micrococcus lysodeikticus IAM 1313; test: as above; details: Micrococcus luteus
[24] = system: Micrococcus flavus ATCC 10240a; test: as above; details: ATCC10240A
Sarcina lutea PCI 1001 = test: as above
[25] = system: Corynebacterium diphteriae; test: as above
[26] = system: Peptococcus asaccharolyticus WAL 3218; test: as above; details: Peptoniphilus asaccharolyticus
[27] = system: Bacteroides thetaiotaomicron WAL 2926; test: as above

With `CC1CCc2c(N3CCC(O)CC3)c(F)cc3c(=O)c(C(=O)O)cn1c23` (centres unmarked) [Compound 1, 9-Fluoro-8-(4-hydroxy-1-piperidyl)-5-methyl-6,7-dihydro-1-oxo-1H,5H-benzo[ij]quinolizine-2-carboxylic acid] the MIC ([1]; 1×10^6 cells/ml) was 0.39 µg/mL (≈ 1.08 µM), the MIC ([1]; 1×10^8 cells/ml) was 0.39 µg/mL (≈ 1.08 µM) and the MIC (Klebsiella pneumoniae; 1×10^6 cells/ml) was 0.39 µg/mL (≈ 1.08 µM). The MIC (Klebsiella pneumoniae; 1×10^8 cells/ml) was 0.39 µg/mL (≈ 1.08 µM), the MIC (Proteus rettgeri NIH 96; NIH96, read-out: Minimum Inhibitory Concentration, 1×10^6 cells/ml) was 0.1 µg/mL (≈ 0.277 µM) and the MIC (Proteus rettgeri NIH 96; NIH96, read-out: Minimum Inhibitory Concentration, 1×10^8 cells/ml) was 0.2 µg/mL (≈ 0.555 µM). The MIC ([2]; E2, 1×10^6 cells/ml) was 6.25 µg/mL (≈ 17.3 µM), the MIC ([2]; E2, 1×10^8 cells/ml) was 6.25 µg/mL (≈ 17.3 µM) and the MIC (Pseudomonas putida 12996; Pseudomonas putida, 12996, 1×10^6 cells/ml) was 6.25 µg/mL (≈ 17.3 µM). It also gave an MIC (Pseudomonas putida 12996; Pseudomonas putida, 12996, 1×10^8 cells/ml) of 6.25 µg/mL (≈ 17.3 µM), an MIC ([3]; ATCC10145, 1×10^6 cells/ml) of 3.13 µg/mL (≈ 8.69 µM) and an MIC ([3]; ATCC10145, 1×10^8 cells/ml) of 3.13 µg/mL (≈ 8.69 µM). For the same compound, the MIC ([4]; read-out: Minimum Inhibitory Concentration, 1×10^6 cells/ml) was 0.05 µg/mL (≈ 0.139 µM), the MIC ([4]; read-out: Minimum Inhibitory Concentration, 1×10^8 cells/ml) was 0.1 µg/mL (≈ 0.277 µM) and the MIC ([5]; IFO12648, 1×10^6 cells/ml) was 0.78 µg/mL (≈ 2.16 µM). The MIC ([5]; IFO12648, 1×10^8 cells/ml) was 1.56 µg/mL (≈ 4.33 µM), the MIC ([6]; FDA209, 1×10^6 cells/ml) was no more than 0.025 µg/mL and the MIC ([6]; FDA209, 1×10^8 cells/ml) was no more than 0.05 µg/mL. For the same compound, the “Minimum Inhibitory Concentration” value ([7]; 1×10^6 cells/ml) was 0.024 µg/mL, the MIC ([7]; Bacillus subtilis, PCI219, 1×10^8 cells/ml) was 0.024 µg/mL (≈ 0.0666 µM) and the “Minimum Inhibitory Concentration” value (Bacillus anthracis; 1×10^6 cells/ml) was 0.05 µg/mL. The MIC (Bacillus anthracis; Bacillus anthracis, read-out: Minimum Inhibitory Concentration) was 0.05 µg/mL (≈ 0.139 µM), the “Minimum Inhibitory Concentration” value ([8]; 1×10^6 cells/ml) was 0.10 µg/mL and the MIC ([8]; Bacillus cereus, ATCC11778, 1×10^8 cells/ml) was 0.1 µg/mL (≈ 0.277 µM). For the same compound, the “Minimum Inhibitory Concentration” value (Bacillus cereus IFO 3001; 1×10^6 cells/ml) was 0.10 µg/mL, the MIC (Bacillus cereus IFO 3001; Bacillus cereus, IFO3001, 1×10^8 cells/ml) was 0.1 µg/mL (≈ 0.277 µM) and the “Minimum Inhibitory Concentration” value (Bacillus cereus IFO 3446; 1×10^6 cells/ml) was 0.10 µg/mL. For the same compound, the MIC (Bacillus cereus IFO 3446; Bacillus cereus, IFO3446, 1×10^8 cells/ml) was 0.1 µg/mL (≈ 0.277 µM), the “Minimum Inhibitory Concentration” value ([9]; 1×10^6 cells/ml) was 0.024 µg/mL and the MIC ([9]; Bacillus pumilus, IFO3813, 1×10^8 cells/ml) was 0.024 µg/mL (≈ 0.0666 µM). For the same compound, the “Minimum Inhibitory Concentration” value ([10]; 1×10^6 cells/ml) was 0.024 µg/mL, the MIC ([10]; Bacillus, ATCC8241, 1×10^8 cells/ml) was 0.024 µg/mL (≈ 0.0666 µM) and the MIC ([11]; 1×10^6 cells/ml) was 0.024 µg/mL (≈ 0.0666 µM). The MIC ([11]; 1×10^8 cells/ml) was 0.05 µg/mL (≈ 0.139 µM), the “Minimum Inhibitory Concentration” value ([12]; 1×10^6 cells/ml) was 0.05 µg/mL and the MIC ([12]; 1×10^8 cells/ml) was 0.05 µg/mL (≈ 0.139 µM). It also gave an MIC ([13]; IFO3761, 1×10^6 cells/ml) of 0.024 µg/mL (≈ 0.0666 µM), an MIC ([13]; IFO3761, 1×10^8 cells/ml) of 0.1 µg/mL (≈ 0.277 µM) and an MIC ([14]; NO.80, 1×10^6 cells/ml) of 0.024 µg/mL (≈ 0.0666 µM). It also gave an MIC ([14]; NO.80, 1×10^8 cells/ml) of 0.05 µg/mL (≈ 0.139 µM), an MIC ([15]; B70, 1×10^6 cells/ml) of 0.024 µg/mL (≈ 0.0666 µM) and an MIC ([15]; B70, 1×10^8 cells/ml) of 0.05 µg/mL (≈ 0.139 µM). For the same compound, the “Minimum Inhibitory Concentration” value ([16]; 1×10^6 cells/ml) was 0.024 µg/mL, the MIC ([16]; Staphylococcus aureus, B5, 1×10^8 cells/ml) was 0.024 µg/mL (≈ 0.0666 µM) and the “Minimum Inhibitory Concentration” value ([17]; 1×10^6 cells/ml) was 0.05 µg/mL. The MIC ([17]; Staphylococcus aureus, 7447, 1×10^8 cells/ml) was 0.05 µg/mL (≈ 0.139 µM), the “Minimum Inhibitory Concentration” value ([18]; 1×10^6 cells/ml) was 0.10 µg/mL and the MIC ([18]; Staphylococcus aureus, 90124, 1×10^8 cells/ml) was 0.1 µg/mL (≈ 0.277 µM). For the same compound, the “Minimum Inhibitory Concentration” value ([19]; 1×10^6 cells/ml) was 0.05 µg/mL, the MIC ([19]; Staphylococcus aureus, 50774, 1×10^8 cells/ml) was 0.05 µg/mL (≈ 0.139 µM) and the “Minimum Inhibitory Concentration” value ([20]; 1×10^6 cells/ml) was 0.05 µg/mL. The MIC ([20]; Staphylococcus epidermidis, ATCC12228, 1×10^8 cells/ml) was 0.05 µg/mL (≈ 0.139 µM), the MIC ([21]; IFO3762, 1×10^6 cells/ml) was 0.2 µg/mL (≈ 0.555 µM) and the MIC ([21]; IFO3762, 1×10^8 cells/ml) was 0.39 µg/mL (≈ 1.08 µM). For the same compound, the MIC ([22]; ATCC4698, 1×10^6 cells/ml) was 0.1 µg/mL (≈ 0.277 µM), the MIC ([22]; ATCC4698, 1×10^8 cells/ml) was 0.2 µg/mL (≈ 0.555 µM) and the MIC ([23]; IAM1313, 1×10^6 cells/ml) was 0.1 µg/mL (≈ 0.277 µM). For the same compound, the MIC ([23]; IAM1313, 1×10^8 cells/ml) was 0.2 µg/mL (≈ 0.555 µM), the MIC ([24]; 1×10^6 cells/ml) was 0.2 µg/mL (≈ 0.555 µM) and the MIC ([24]; 1×10^8 cells/ml) was 0.39 µg/mL (≈ 1.08 µM). The “Minimum Inhibitory Concentration” value (Sarcina lutea PCI 1001; 1×10^6 cells/ml) was 0.39 µg/mL, the MIC (Sarcina lutea PCI 1001; Micrococcus luteus, PCI1001, 1×10^8 cells/ml) was 0.39 µg/mL (≈ 1.08 µM) and the “Minimum Inhibitory Concentration” value ([25]; 1×10^6 cells/ml) was 0.05 µg/mL. It also gave an MIC ([25]; Corynebacterium, 1×10^8 cells/ml) of 0.05 µg/mL (≈ 0.139 µM), an MIC ([26]; WAL3218, 1×10^6 cells/ml) of 0.78 µg/mL (≈ 2.16 µM) and an MIC ([26]; WAL3218, 1×10^8 cells/ml) of 1.56 µg/mL (≈ 4.33 µM). It also gave an MIC ([27]; WAL2926, 1×10^6 cells/ml) of 1.56 µg/mL (≈ 4.33 µM) and an MIC ([27]; WAL2926, 1×10^8 cells/ml) of 6.25 µg/mL (≈ 17.3 µM).
